US20080119530A1, “Method for treatment and prevention of ultraviolet light induced skin pathologies” (priority 2006, published 2008)

What was measured:
skin = assay: Cell cycle analysis of skin sections by flow cytometry; format: in vivo, mouse; conditions: inhibition prior to UV irradiation
Method: Flow cytometry. […] sections from paraffin embedded blocks were dewaxed with xylene, rehydrated and digested in PBS containing 0.5% pepsin (Sigma, St. Louis, Mo.). The nuclei were isolated by filtration and suspended in Vindelov's (56) solution reagent (3.5 mM tris base, pH 7.6, 10 mM NaCl, 10 μg/ml Ribonuclease A, 75 μg/ml PI, 1.0 μl/ml IPEGAL; (71)). At least 10,000 events from each sample were analyzed for flow cytometry on a FACSCalibur flow cytometer (Becton Dickinson, Franklin Lakes, N.J.). Data were acquired in the FL2 channel with a […] filter. Fluorescence signals were pulse processed and single cells identified using a FL2W versus FL2A plot. A histogram of FL2A was plotted for single cells and cell cycle distributions determined using ModFit LT 3.1 software (Verity Software House, Topsham, Me.).
(§1) Cell cycle. […] For in vitro analysis, keratinocytes were resuspended, fixed in 70% ethanol, resuspended in Vindelov's solution (3.5 mM Tris base, pH 7.6, 10 mM NaCl, 10 μg/ml Ribonuclease A, 75 μg/ml propidium iodide, 1.01l/ml IPEGAL), and analyzed on a FACSCalibur flow cytometer (Becton Dickinson, Franklin Lakes, N.J.). Cell cycle distributions were determined using ModFit LT 3.1 software (Verity Software House, Topsham, Me.). […]

keratin 5, loricrin = assay: Differentiation markers in UV-exposed skin; format: in vivo, mouse; conditions: inhibition prior to UV irradiation
primary keratinocytes [1] = assay: BrdU incorporation (DNA synthesis) in cultured primary keratinocytes; format: cell-based, mouse
Text: Cell culture. […] Keratinocytes were transfected with Erbb2-targeted siRNA (32), Stealth RNAi Negative Control LO GC (Invitrogen, Carlsbad, Calif.), Cy3-conjugated Label IT RNAi Delivery Control (Mirus, Madison, Wis.) or sham transfection with TransIT-siQUEST Transfection Reagent (Mirus, Madison, Wis.). Plasmids with Cdc25a (Hassepass et al. 2003a) and EGFP (enhanced green fluorescent protein) cDNA were cotransfected with Lipofectamine Transfection Reagent (Invitrogen, Carlsbad, Calif.). Transfection efficiency was quantified by determining the proportion of the cells that incorporated the fluorescent Cy3-conjugated siRNA or GFP one day post-transfection. […]
as §1
Proliferation and apoptosis assays. Proliferation, survival and apoptosis were quantified in three replicate experiments. BrdU uptake was measured by a chemiluminescenit BrdU Cell Proliferation ELISA (Roche, Germany). […] MUH fluorescence from wells lacking cells was subtracted from all samples. […]

primary keratinocytes [2] = assay: Cell cycle distribution (DNA content, flow cytometry) in cultured keratinocytes; format: cell-based, mouse
Text: (§2) Cell culture. […] Keratinocytes were transfected with Erbb2-targeted siRNA (32), Stealth RNAi Negative Control LO GC (Invitrogen, Carlsbad, Calif.), Cy3-conjugated Label IT RNAi Delivery Control (Mirus, Madison, Wis.) or sham transfection with TransIT-siQUEST Transfection Reagent (Mirus, Madison, Wis.). Plasmids with Cdc25a (Hassepass et al. 2003a) and EGFP (enhanced green fluorescent protein) cDNA were cotransfected with Lipofectamine Transfection Reagent (Invitrogen, Carlsbad, Calif.). Transfection efficiency was quantified by determining the proportion of the cells that incorporated the fluorescent Cy3-conjugated siRNA or GFP one day post-transfection. Keratinocytes homozygous for the Erbb2 loxP mutation were infected with Cre recombinase-expressing or empty adenoviral vectors in polybrene (Sigma).
Cell cycle. For in vivo analysis of cell cycle distribution, sections from paraffin embedded blocks were dewaxed with xylene, rehydrated and digested in PBS containing 0.5% pepsin (Sigma, St. Louis, Mo.). The nuclei were isolated by filtration and suspended in Vindelov's solution reagent (3.5 mM tris base, pH 7.6, 10 mM NaCl, […] Ribonuclease A, 75 μg/ml PI, 1.01l/ml IPEGAL) (56). For in vitro analysis, keratinocytes were resuspended, fixed in 70% ethanol, resuspended in Vindelov's solution (3.5 mM Tris base, pH 7.6, 10 mM NaCl, 10 μg/ml Ribonuclease A, 75 μg/ml propidium iodide, 1.01l/ml IPEGAL), and analyzed on a FACSCalibur flow cytometer (Becton Dickinson, Franklin Lakes, N.J.). Cell cycle distributions were determined using ModFit LT 3.1 software (Verity Software House, Topsham, Me.). […]
To further investigate Erbb2's effects on cell cycle progression after UV irradiation, DNA synthesis was examined after UV irradiation of cultured primary keratinocytes lacking Erbb2 activity. […] An even more striking effect was detected after UV irradiation. […] The influence of Erbb2 activation on S-phase progression was determined using both pharmacologic and genetic models to interfere with Erbb2 signaling. […]

keratinocytes = assay: Apoptosis in keratinocytes (ssDNA Apoptosis ELISA); format: cell-based, mouse
Text: as §2
Proliferation and apoptosis assays. Proliferation, survival and apoptosis were quantified in three replicate experiments. BrdU uptake was measured by a chemiluminescenit BrdU Cell Proliferation ELISA (Roche, Germany). Survival was quantified using 4-methylumbelliferyl heptanoate (MUH, Sigma, St. Louis, Mo.) degradation product fluorescence (ex: 360 nm, em:465 nm) as a marker for cell viability based on the method by Dotsika et al.^27 Cells were incubated in 100 μg/ml MUH in PBS for 30 minutes at 37° C. MUH fluorescence from wells lacking cells was subtracted from all samples. Apoptosis was measured using an ssDNA Apoptosis ELISA kit (Chemicon, Temecula, Calif.).
To investigate the role of Erbb2 in apoptosis following UV exposure, keratinocyte survival was measured in AG825-treated or Erbb2 siRNA-transfected cells and controls. As expected, apoptosis increased in all groups after UV exposure, as detected by ssDNA quantification.

Erbb3 = assay: UV-induced phosphorylation of Erbb3; format: cell-based, mouse
Text: Several methods were developed to regulate Erbb2 expression and activity both in vitro and in vivo.

SMILES: COc1cc(/C=C(\C#N)C(N)=O)cc(CSc2nc3ccccc3s2)c1O [AG825]
- S-phase cells in skin (skin): increased
- localization or expression of early (keratin 5) or late (loricrin) markers of differentiation (keratin 5, loricrin): did not alter
- BrdU incorporation (primary keratinocytes [1]; by 12 h after UV irradiation): reduced to nearly zero
- BrdU incorporation (primary keratinocytes [1]; sham-irradiated keratinocytes): significantly reduced
- time at which S-phase arrest began (primary keratinocytes [2]; after UV exposure): 18 h
- S-phase arrest (primary keratinocytes [2]; after sham UV): caused S-phase arrest
- increase in the percentage of cells in S-phase (primary keratinocytes [2]; inhibition prior to UV exposure): 10%
- ssDNA (apoptosis), compared with DMSO-treated keratinocytes (keratinocytes; between 6 and 12 h post-UV): similarly increased
- apoptosis compared to DMSO-treated cells (keratinocytes; by 24 h after UV exposure): significantly increased
- apoptosis after UV in vitro (keratinocytes; extent varies with the assay): small increase
- UV-induced phosphorylation of Erbb3-Tyr1289 (Erbb3): blocked
